From patent US6994981B2, “Modulators of paraptosis and related methods” (The Buck Institute, priority 2002, dated 2006)
Structures can show the parent of a compound that is named as a salt. Starred links: 1 amine or outer side, 2 acyl side, 3 side chain; linkers in the order of their positions; H or OH if unused. Positions of bridges follow the written chain, without caps; N, C: chain ends. Non-standard residues stand in square brackets, D forms with d. Residues, ends and D or L forms follow the SMILES beside them. Chains are numbered I, II in the order given. No end group written: not given here. Actinocin(9to1) = Cc1c2oc3c(C)ccc(C(=O)[*:1])c3nc-2c(C(=O)[*:2])c(N)c1=O; NMeV = CN[C@H](C(=O)O)C(C)C; Sar = CNCC(=O)O

What was measured:
[1] = test system: striatal, cortical, and hippocampal neurons; assay: SP-induced cell death in primary striatal, cortical and hippocampal neurons, trypan blue viability and staining; format: cell-based, rat; details: for effect on SP-induced cell death: 1 μg/ml; for effect on SP-induced cell death / effect on SP-induced neuronal cell death: added at the same time as SP; for effect on neuronal cell death in response to SP: added 30 min before SP: 10 μM PD 98059, 50 nM Calphostin C, 10 μM Rp-8-Br-cAMPS; for effect on SP-induced neuronal cell death: 5 nM L-732,138, 1 nM L-733,060
Description: Rat neuronal primary cell cultures were also used to assay for inducers and inhibitors of paraptosis. Briefly, primary striatal, cortical and hippocampal cultures were prepared from 17-day-old Sprague-Dawley rat embryos (B&K). The tissue was dissected, minced and trypsinized for five minutes using 0.25% trypsin (Cell Grow). After the addition of 10% horse serum (Life Technologies) to inhibit the trypsin, the cell suspension was triturated 15–20 times with a 10 ml syringe and centrifuged for five minutes at 800×g. The pellet was resuspended in MEM-PAK (UCSF Cell Culture facility), supplemented with 2.02 gm glucose, 2 mM GLUTAMAX™ (Life Technologies) and penicillin/streptomycin (100 U/ml). The suspension was filtered through a […] cell strainer and the final culture medium contained 5% horse serum. Subsequently, 3-4×10^5 cells per Cm^2 were seeded onto either poly-D-lysine precoated 8-well chamber slides (Becton-Dickson Labware) or 96 well plates precoated with […] of poly-D-lysine (Sigma) in water. After 30 minutes of incubation time, unattached cells were removed together with the medium and replaced with glucose enriched MEM-PAK plus 5% horse serum. The cultures were then incubated at 37° C. in 95% air 5% carbon dioxide with 95% humidity. Cultures were used for experiments between day 1 and day 7 when glial contamination was at a minimum.
Primary neuronal cells were prepared as described in Example I. SP (SIGMA) at a concentration of 0.1 nM–100 μM was added 24–48 hrs after seeding, in the presence of 2.5% horse serum. When the cultures were maintained for more than 5 days, 10 μM cytosine arabinoside was added for 24 hours, beginning 3 days after plating the cells. Viability was quantified by trypan blue staining of the total cell population.
The following compounds were added at the same time as SP in the indicated experiments: 5 nM L-732, 138; 1 nM L-733,060; 1 μg/ml Actinomycin D or 1 μg/ml Cycloheximide. All of these compounds were obtained from SIGMA. The caspase inhibitors zVAD.fmk and BAF were added at 50 μM and obtained from Enzyme System Products, Livermore, Calif.
Either neuronal primary cultures or human embryonic kidney 293T cells were fixed with 4% paraformaldehyde and stained with 0.5 μg/ml DAPI (Molecular Probes) or Hoechst(SIGMA). […]
The protein kinase inhibitors were added 30 min before SP exposure at the following concentrations: 10 μM Rp-8-Br-cAMPS (adenosin 3′,5′-cyclic monophosphorothioate, 8-bromo-, Rp-isomer, sodium salt) which is a PKA inhibitor; 50 nM Calphostin C, which is a PKC inhibitor; 10 μM PD 98059 which is a MAPKK (MEK) inhibitor. These compounds were obtained from Calbiochem. Viability was quantified by trypan blue staining of the total cell population.

[2] = test system: IGFIR-IC transfected 293T cells; assay: Inhibition of IGFIR-IC induced paraptosis in transfected 293T cells, LDH assay; format: cell-based, human; details: added at the time of transfection
Description: Paraptosis was induced in 293T cells by expressing the intracellular domain of the insulin-like growth factor I receptor (IGFIR-IC) in these cells using transient transfection as described above.
(§1) Test compounds were added to IGFIR-IC transfected 293T cells at the time of transfection.
The TRAF2 dominant negative mutant contains a deletion of the amino terminal 271 amino acids of the protein. The ratio of IGFIR-IC:AIP1 and IGFIR-IC:TRAF2DN was 1:3. […] Antisense oligonucleotide constructs for JNK1 or JNK2 (50–100 nM) were transfected into 293T cells one day before transfection with the IGFIR-IC construct. For all inhibition assays, cell viability was measured using the LDH assay.

[3] = test system: paraptosis induced by caspase 7, caspase 8 or caspase 9; assay: Inhibition of paraptosis induced by caspases; format: cell-based
Description: as §1

[4] = test system: caspases, calpains, proteasome; assay: Protease activation during SP-induced cell death, substrate hydrolysis in cytosolic extracts of NK1R-transfected 293T cells; format: biochemical, human; details: added to cytosolic extract of NK1R-transfected 293T cells
Description: Preparation of cell-free extract for kinetic studies: 293T cells seeded at the density of 2 million cells per 10 cm dish were transfected with NK1R cDNA using Lipofectamine 2000 (Gibco) according the instructions provided by the manufacturer. After 24 hr 10 nM SP was added to half of the culture dishes. At 24 hr later the cells were washed with ice cold PBS and collected with a cell scraper. The cells pelleted at 700×g for 4 min were resuspended in cell lysis buffer at pH 7.4 containing 1 mM dithiothreitol at a ratio of 1:1 (v/v). After 30 min on ice the swelled cells were disrupted with 20 strokes using a 27 gauge needle and further spun at 16,000×g for 30 min. The pellet was discarded and the supernatant which represents the cytosolic fraction was aliquoted and stored at −80° C. or used in the kinetic studies. The protein concentration was determined using the Bradford assay (Pierce).
For kinetic studies, the proteolytic activities were followed fluorometrically by monitoring AFC or AMC release from 100 μM of the corresponding substrates (Enzyme Systems Products): Caspase-1 like, Ac-YVAD-AFC; caspase-2, Ac-VDVAD-AFC; caspases-3 like, Ac-DEVD-AFC; caspase-6, Ac-VEID-AFC; caspase-8, Ac-IETD-AFC; caspase-9, Ac-LEHD-AFC. Calpain activity was monitored with 100 μM Suc-LY-AFC (succinyl-Leu-Tyr-7-amino-4-methylcoumarin, Enzyme Systems Products) at 5 μM and 5 mM CaCl2. The chymotrypsin activity of the proteasome was followed with 100 μM Suc-LLVY-AFC (succinyl-Leu-Leu-Val-Tyr-7-amino-4-methylcoumarin, Enzyme Systems Products), and cathepsins were assayed using 20 μM Z-FR-AMC (Benzyloxycarbonyl-Phe-Arg-7-amino-4-methylcoumarin, Bachem). A 10 μl aliquot of extract in the presence or absence of SP was added to 90 μl of substrate at the appropriate concentration and pH. The reaction was continuously monitored during 30 min and 37° C. in a fluorescence microplate reader (Molecular Devices). The instrument was set at excitation and emission wavelengths of 405 and 510 for AFC releasing group, and 370 and 460 nm, for AMC releasing group, respectively. The steady-state hydrolysis rates were obtained from the linear part of the curves.

293T cells = assay: Induction of paraptosis in 293T cells, LDH cell death assay; format: cell-based, human; details: for induction of paraptosis when expressed: pcDNA3 construct transiently transfected into 293T cells
Description: Human embryonic kidney 293T cell line cells were used to assay for inducers and inhibitors of paraptosis. These cells were cultured in high glucose DMEM (Life Technologies) supplemented with 10% FBS (Sigma) and 1% penicillin/streptomycin (Life Technologies). The cultures were incubated at 37° C. in 95% air 5% carbon dioxide with 95% humidity.
Subsequently, compounds were added to 293T cells and/or rat neuronal primary cell culture cells in order to determine if the compounds could induce paraptosis. Cell death was assayed using the lactate dehydrogenase (LDH) assay, in which the relative amount of enzyme released from dying cells in the medium is measured by following the disappearance of nicotinamide adenine dinucleotide, reduced form (NADH) in the following reaction: pyruvate+NADH <−>NAD^++ lactate. Briefly, 50 μl of culture medium for either 293T cells or 100 μl of culture medium for neuronal primary culture were dispensed in a 96 well plate to which 100 μl of a solution consisting of 5 mg of NADH dissolved in 20 ml of PBS and 0.5 ml of 100 mM NaPyruvate. NADH disappearance was assessed by kinetic photmetric readings at a 340 nm wavelength at 19 minute intervals over a period of 2 hours and 30 minutes.
Constructs of pcDNA3 containing procaspase-7 or procaspase-8 were transiently transfected into 293T cells using Lipofect-Amine (GIBCO-BRL) according to the manufacturer's instructions. Briefly, 1×10^6 293T cells were seeded in 6 cm dishes, and transfected the next day using a ratio of DNA:Lipofect-Amine of 1 μg:5 μl. Transfection efficiency was 60–80% for 293T cells, as determined by X-gal staining after transfection of a β-galactosidase construct.

In the case of “D form of SP: D isomer of substance P ([dR][dP][dK][dP][dQ][dQ][dF][dF]G[dL][dM]; ends and bridges not checked)”, the “effect of SP isomer on neuronal cell death” value ([1]; L or D isomer) is reported as “no effect on cell death”.

In the case of `C[C@@H]1C[C@@H]([C@H](O)CC2CC(=O)NC(=O)C2)C(=O)[C@@H](C)C1` [cyclohexamide], the “effect on SP-induced cell death” value [1] is reported as “prevented”.

In the case of `O=S(=O)(NCCNC/C=C/c1ccc(Br)cc1)c1cccc2cnccc12` [H89], the “concentration able to inhibit IGFIR-IC induced paraptosis” value [2] is reported as 10 to 20 µM.

With `Nc1ncnc2c1nc(Br)n2C1OC2COP(O)(=S)OC2C1O` (single isomer, unassigned) [Rp-8-Br-cAMPS, adenosin 3′,5′-cyclic monophosphorothioate, 8-bromo-, Rp-isomer, sodium salt] the “effect on neuronal cell death in response to SP” value [1] was “no protective effect”.

With `c1cnc2c(c1)ccc1cccnc12` [1–10-phenantroline] the “concentration able to inhibit IGFIR-IC induced paraptosis” value [2] was 0.05 µM, the “inhibition of paraptosis induced by caspase 8” value [3] was “able to inhibit paraptosis” and the “inhibition of paraptosis induced by caspase 9” value [3] was “able to inhibit paraptosis”.

With `Cc1c2oc3c(C)ccc(C(=O)N[C@@H]4C(=O)N[C@H](C(C)C)C(=O)N5CCC[C@H]5C(=O)N(C)CC(=O)N(C)[C@@H](C(C)C)C(=O)O[C@@H]4C)c3nc-2c(C(=O)N[C@@H]2C(=O)N[C@H](C(C)C)C(=O)N3CCC[C@H]3C(=O)N(C)CC(=O)N(C)[C@@H](C(C)C)C(=O)O[C@@H]2C)c(N)c1=O` [actinomycin D] (I: T[dV]P[Sar][NMeV] / II: T[dV]P[Sar][NMeV]; ester I:1-I:C, II:1-II:C; linker I:N-II:N via Actinocin(9to1)) the “effect on SP-induced cell death” value [1] was “prevented”.

For Calphostin C, the “effect on neuronal cell death in response to SP” value [1] was “no protective effect”.

In the case of `FC(F)(F)c1cc(CO[C@H]2CCCN[C@H]2c2ccccc2)cc(C(F)(F)F)c1` [L-733,060], the “effect on SP-induced neuronal cell death” value [1] is reported as “inhibited SP-induced cell death”.

With “neurokinin A: NK1R agonist that does not exhibit mitochondrial toxicity (HKTDSFVGLM; ends and bridges not checked; UniProt P20366 98-107, looked up)” the “induction of cell death by NK1R agonists” value ([1]; compared with SP) was “able to induce cell death as well as SP”.

“granzyme B: serine protease that activates procaspase-3” was tested, and the “increase of DEVDase activity” value [4] was 7 fold.

`CC(=O)N[C@@H](Cc1c[nH]c2ccccc12)C(=O)OCc1cc(C(F)(F)F)cc(C(F)(F)F)c1` [L-732,138] was tested, and the “effect on SP-induced neuronal cell death” value [1] was “inhibited SP-induced cell death”.

With Tumor Necrosis Factor-α the “concentration at which found to induce paraptosis” value (293T cells; 293T cells) was 1 to 10 ng/mL.

B1: procaspase-7: procaspase-7 expressed in 293T cells from a pcDNA3 construct (protein, UniProt P55210 2-303, looked up)
pro-form: ADDQGCIEEQGVEDSANEDSVDAKPDRSSFVPSLFSKKKKNVTMRSIKTTRDRVPTYQYNMNFEKLGKCIIINNKNFDKVTGMGVRNGTDKDAEALFKCFRSLGFDVIVYNDCSCAKMQDLLKKASEEDHTNAACFACILLSHGEENVIYGKDGVTPIKDLTAHFRGDRCKTLLEKPKLFFIQACRGTELDDGIQADSGPINDTDANPRYKIPVEADFLFAYSTVPGYYSWRSPGRGSWFVQALCSILEEHGKDLEIMQILTRVNDRVARHFESQSDDPHFHEKKQIPCVVSMLTKELYFSQ
modifications: pro-form
notes: procaspase-7 expressed in 293T cells from a pcDNA3 construct
In the case of B1, the “induction of paraptosis when expressed” value (293T cells) is reported as “able to induce paraptosis”.

B2: procaspase-8: procaspase-8 expressed in 293T cells from a pcDNA3 construct (protein, UniProt Q14790 1-479, looked up)
pro-form: MDFSRNLYDIGEQLDSEDLASLKFLSLDYIPQRKQEPIKDALMLFQRLQEKRMLEESNLSFLKELLFRINRLDLLITYLNTRKEEMERELQTPGRAQISAYRVMLYQISEEVSRSELRSFKFLLQEEISKCKLDDDMNLLDIFIEMEKRVILGEGKLDILKRVCAQINKSLLKIINDYEEFSKERSSSLEGSPDEFSNGEELCGVMTISDSPREQDSESQTLDKVYQMKSKPRGYCLIINNHNFAKAREKVPKLHSIRDRNGTHLDAGALTTTFEELHFEIKPHDDCTVEQIYEILKIYQLMDHSNMDCFICCILSHGDKGIIYGTDGQEAPIYELTSQFTGLKCPSLAGKPKVFFIQACQGDNYQKGIPVETDSEEQPYLEMDLSSPQTRYIPDEADFLLGMATVNNCVSYRNPAEGTWYIQSLCQSLRERCPRGDDILTILTEVNYEVSNKDDKKNMGKQMPQPTFTLRKKLVFPSD
modifications: pro-form
notes: procaspase-8 expressed in 293T cells from a pcDNA3 construct
With B2 the “induction of paraptosis when expressed” value (293T cells) was “able to induce paraptosis”.
